Reference: patent publication US20230280275A1, “PHOTOACTIVATABLE VIBRATIONAL PROBES AND USES THEREOF” (California Institute of Technology, priority 2021, published 2023)

Key:
[1] = reported value; cited from earlier work
[2] = Photoactivation (UV-uncaging) monitored by time-series spontaneous Raman spectra; format: physicochemical; details: 365 nm illumination (15 mW/cm^2); increase of alkyne peak 2226 cm^-1
Method: The 365 nm UV light used to activate cyclopropenones comes from a UV handlamp (Analytik Jena UVP EL Series Lamp, UVLS-24, 4 Watt, 2 UV 254/365 nm, typically used for TLC monitoring in organic synthesis). The power of 365 nm UV of this handlamp was measured to be 15 mW/cm2 on samples.
Next, the photo-uncaging kinetics for both 1-cyclo (1) and 2-cyclo (3) were compared. […] With 365 nm lamp illumination, the characteristic peaks of cyclopropenones (~1860 cm^-1) continue to drop while the alkyne peaks (2226 cm^-1) gradually increase for both molecules (FIG. 1D). […] The progression of the UV-activation reactions could also be confirmed by the change in the corresponding absorption spectra (FIG. 6).

[3] = Spontaneous Raman / hyperspectral SRS spectroscopy of probes and uncaged alkynes; format: physicochemical
Description: An integrated laser (picoEMERALD, Applied Physics and Electronics, Inc.) was used as a light source for both pump and Stokes beams. It produces 2 ps pump (tunable from 770 nm - 990 nm, bandwidth 0.5 nm, spectral bandwidth ~ 7 cm-1 ) and Stokes (1031.2 nm, spectral bandwidth 10 cm-1 ) beams with 80 MHz repetition rate. Stokes beam is modulated at 20 MHz by an internal electro-optic modulator. The spatially and temporally overlapped pump and Stokes beams are introduced into an inverted multiphoton laser scanning microscopy (FV3000, Olympus), and then focused onto the sample by a 25X water objective (XLPLN25XWMP, 1.05 N.A., Olympus). Transmitted pump and Stokes beams are collected by a high N.A. condenser lens (oil immersion, 1.4 N.A., Olympus) and pass through a bandpass filter (893/209 BrightLine, 25 mm, AVR Optics) to filter out Stokes beam. A large area (10×10 mm) Si photodiode (S3590-09, Hamamatsu) is used to measure the remaining pump beam intensity. 64 V DC voltage was used on the photodiode to increase saturation threshold and reduce response time. The output current is terminated by a 50 Ω terminator and pre-filtered by an 19.2-23.6-MHz band-pass filter (BBP-21.4+, Mini-Circuits) to reduce laser and scanning noise. The signal is then demodulated by a lock-in amplifier (SR844, Stanford Research Systems) at the modulation frequency. The in-phase X output is fed back to the Olympus IO interface box (FV30-ANALOG) of the microscope. Image acquisition speed is limited by 30 µs time constant set for the lock-in amplifier. Correspondingly, we use 80 µs pixel dwell time, which gives a speed of 8.5 s frame-1 for a 320-by-320-pixel field of view. Laser powers are monitored through image acquisition by an internal power meter and power fluctuation are controlled within 5% by the laser system. 16-bit grey scale images are acquired by Fluoview software. SRS spectra were acquired by fixing the Stokes beam at 1031.2 nm and scanning the pump beam through the designated wavelength range point by point. 10 mM EdU (H2O) sample was used as a standard to give RIE of different probes. Fluorescence images were collected using the same Olympus FV3000 confocal microscope with CW laser excitation (405, 488, 561 and 640 nm, Coherent OBIS LX laser) and standard bandpass filter sets. The correlation coefficients (Pearson’s R value) between SRS images and fluorescence images were calculated using ‘Coloc 2’ tool of ImageJ.
To perform spontaneous Raman spectroscopy, spontaneous Raman spectra were acquired using an upright confocal Raman spectrometer (Horiba Raman microscope; Xplora plus). A 532 nm YAG laser is used to illuminate the sample with a power of 12 mW on sample through a 100 x, N.A. 0.9 objective (MPLANN; Olympus) with 100 µm slit and 500 µm hole. Spectro/Raman shift center was set to be 2000.04 cm-1 . With a 1200 grating, Raman shift ranges from 690.81 cm-1 to 3141.49 cm-1 was acquired to cover whole biological relevant Raman peaks. The acquired spectra were processed by the LabSpec 6 software for baseline correction.
Cyclopropenone caging has been previously adopted for photoactivation and subsequent biorthogonal labeling of fluorophores in fluorescence microscopy. […] Herein the alkyne Raman signal generation from photo-DIBO light-activation was first measured (FIG. 1A). […] Compared to 5-ethynyl-2′-deoxyuridine (EdU), the well-adopted benchmark for Raman intensity quantification, the relative Raman intensity to EdU (RIE) of the strained alkyne DIBO is only 1.8 (Table 1). […] Given this, it is reasoned that diphenylcyclopropenone (i.e. cyclopropenone-caged 1-yne, 1-cyclo, 1, FIG. 1A) should be a better photoactivatable Raman scaffold with higher Raman sensitivity after uncaging. Indeed, UV-uncaging of 1-cyclo (1), which started from a similarly weak Raman peak at 1860 cm^-1 from photo-DIBO, produced an intense sharp peak for 1-yne (2) at 2226 cm^-1 (FIG. 1B, dashed black vs solid blue spectra) with an improved RIE values to about 4

[4] = UV-Vis absorption spectra; format: physicochemical; details: 20 uM in DMSO
Method: UV-Vis absorption spectra were recorded on a Varian Cary 50 UV-Vis Spectrophotometer (Agilent).

[5] = tested on: live HeLa cells; assay: SRS imaging of live HeLa cells incubated with unmethylated probes before and after 405 nm illumination; format: cell-based; details: 20 µM, 30 minutes of labeling; 2226 cm^-1 channel after 405 nm
Method: FIG. 7 provides exemplary results from SRS imaging of live HeLa cells incubated with 1-cyclo (1, 20 µM, 30 minutes of labeling, top) and Cyclo-Mito (7, 20 µM, 30 minutes of labeling, bottom) at the CH3 (2940 cm^-1) channel, and the expected uncaged alkyne channel (2226 cm^-1) before and after 405 nm illumination. Scale bar: 10 µm.
An integrated laser (picoEMERALD, Applied Physics and Electronics, Inc.) was used as a light source for both pump and Stokes beams. It produces 2 ps pump (tunable from 770 nm - 990 nm, bandwidth 0.5 nm, spectral bandwidth ~ 7 cm-1 ) and Stokes (1031.2 nm, spectral bandwidth 10 cm-1 ) beams with 80 MHz repetition rate. Stokes beam is modulated at 20 MHz by an internal electro-optic modulator. […] Laser powers are monitored through image acquisition by an internal power meter and power fluctuation are controlled within 5% by the laser system. […] Fluorescence images were collected using the same Olympus FV3000 confocal microscope with CW laser excitation (405, 488, 561 and 640 nm, Coherent OBIS LX laser) and standard bandpass filter sets. The correlation coefficients (Pearson’s R value) between SRS images and fluorescence images were calculated using ‘Coloc 2’ tool of ImageJ.

[6] = tested on: live HeLa cells; assay: Time lapse (pulse-chase) imaging of retained signal after photoactivation; format: cell-based; details: after 2 hours of chasing, 0 h = 100%
Method: FIG. 20 illustrates labeling signal and specificity evaluation during 2 hours of time lapse imaging in photoactivated Me-Mito-^13C (16) labeled live HeLa cells. Panel (a) is a plot showing quantification of retained signals after 1 hour and 2 hours imaging. The values of signals at 0 h were used as 100% signal reference. n = 6 independent experiments. Data shown as mean ± SEM. Panel (b) includes a series of representative time lapse imaging. The magnified images of the bottom cell (indicated by the dashed white box) are shown. Scale bar: 10 µm. The high mitochondria-labeling specificity of the mitochondria probe was confirmed for relatively long-term pulse-chase tracking applications. More than 85% of activated Me-Mito-^13C (16) signals retained in live HeLa cells after 2 hours of chasing ([…]) with well-maintained mitochondria labeling pattern (FIG. 20, panel b). In live HeLa cells labeled with Me-Mito-^13C (16), 405 nm laser was first used to pulse-activate the selected region of a single cell for 20 seconds (FIG. 5A, CH3, the white dashed box indicates the activation area). Immediately after photoactivation, SRS imaging at 2125 cm^-1 well resolved the distribution of mitochondria only from this activated subcellular region (FIG. 5A, Mito0 min, Pulse), implying high spatial selectivity. […]

SMILES	quantum yield [1]	uncaging kinetics k [2]	RIE (relative Raman intensity to EdU) ([3]; 10 mM EdU (H2O) as standard)	Raman Peak ([3]; cell silent region, model systems)	Abs [4]	εabs [4]	uncaging signals in labeled live cells [5]	activated signals retained [6]	alkyne Raman peak / SRS channel after uncaging ([3]; organelle probes after UV / 405 nm uncaging)
O=c1c(-c2ccccc2)c1-c1ccccc1 [1-cyclo (1), diphenylcyclopropenone]	0.78	0.0044 s⁻¹	0.37	1860 cm⁻¹	302 nm	28600 M⁻¹ cm⁻¹	did not produce any observable uncaging signals		
Cc1cc(C)c(-[13c]2c(=O)[13c]2-c2c(C)cc(OCCC[P+](c3ccccc3)(c3ccccc3)c3ccccc3)cc2C)c(C)c1.[Br-] [Me-Mito-^13C (16)]								More than 85%	2125 cm⁻¹
